PubChem BioAssay AID330 (DTP/NCI, 2004)
Inconclusive results and toxic doses are left out. How the source made its calls: active means survival T/C of 150% or more; inactive means T/C below 125% in these data.

System: P388 leukemia ip, CD2F1 mice, survival T/C
Test: NCI In Vivo Anticancer Drug Screen. Data for tumor model P388 Leukemia (intraperitoneal) in CD2F1 (CDF1) mice
Conditions: endpoint: median survival time, higher = longer survival
Procedure, shortened: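 Mice carrying the transplanted tumor received test compound or vehicle. Survival was recorded in each group, and the value is the treated-group measurement divided by that of the vehicle-treated control group.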

[1] = dose: 50.0 mg/kg/injection, schedule: Q01DX009 (ip), vehicle: Klucel (hydroxypropylcellulose) (HPC)

Measured: T/C

CCOC(=O)c1ccc(N=Nc2c(O)c(C(=O)OCC)c(O)c3ccccc23)cc1O
inactive: dose: 100.0 mg/kg/injection, schedule: Q01DX001 (ip), vehicle: distilled water + alcohol 91 % of control | dose: 200.0 mg/kg/injection, schedule: Q01DX001 (ip), vehicle: distilled water + alcohol 86 % of control | dose: 400.0 mg/kg/injection, schedule: Q01DX001 (ip), vehicle: distilled water + alcohol 86 % of control

C[Si](C)(c1ccc(Cl)cc1)c1ccc(Cl)cc1
inactive: dose: 50.0 mg/kg/injection, schedule: Q01DX009 (ip), vehicle: saline 97 % of control | dose: 100.0 mg/kg/injection, schedule: Q01DX009 (ip), vehicle: saline 100 % of control | dose: 200.0 mg/kg/injection, schedule: Q01DX009 (ip), vehicle: saline 99 % of control

S=c1cc(-c2ccccc2)ss1
inactive: dose: 178.0 mg/kg/injection, schedule: Q04DX003 (ip), vehicle: saline with Tween-80 102 % of control | dose: 266.0 mg/kg/injection, schedule: Q04DX003 (ip), vehicle: saline with Tween-80 102 % of control | dose: 400.0 mg/kg/injection, schedule: Q04DX003 (ip), vehicle: saline with Tween-80 101 % of control | dose: 600.0 mg/kg/injection, schedule: Q04DX003 (ip), vehicle: saline with Tween-80 102 % of control

C=CCCC1CN2CCc3cc(OC)c(OC)cc3C2CC1=O (centres undefined)
inactive: [1] 113 % of control | dose: 100.0 mg/kg/injection, schedule: Q01DX009 (ip), vehicle: Klucel (hydroxypropylcellulose) (HPC) 103 % of control | dose: 200.0 mg/kg/injection, schedule: Q01DX009 (ip), vehicle: Klucel (hydroxypropylcellulose) (HPC) 105 % of control

COc1cc2c(c(OC)c1OC)-c1ccc(SC)c(=O)cc1[C@@H](NC1OC(COC(C)=O)C(OC(C)=O)C(OC(C)=O)C1OC(C)=O)CC2 (some centres undefined)
inactive: dose: 0.75 mg/kg/injection, schedule: Q01DX009 (ip), vehicle: other 97 % of control | dose: 1.5 mg/kg/injection, schedule: Q01DX009 (ip), vehicle: other 97 % of control | dose: 3.0 mg/kg/injection, schedule: Q01DX009 (ip), vehicle: other 102 % of control | dose: 6.0 mg/kg/injection, schedule: Q01DX009 (ip), vehicle: other 107 % of control | dose: 12.0 mg/kg/injection, schedule: Q01DX009 (ip), vehicle: other 117 % of control | dose: 24.0 mg/kg/injection, schedule: Q01DX009 (ip), vehicle: other 120 % of control
active: dose: 192.0 mg/kg/injection, schedule: Q01DX009 (ip), vehicle: other 150 % of control

COC(=O)C1=C/CCCN(CCC2OCC(CBr)O2)/C=C\1C(=O)OC (centres undefined)
inactive: dose: 100.0 mg/kg/injection, schedule: Q01DX001 (ip), vehicle: saline with Tween-80 99 % of control | dose: 200.0 mg/kg/injection, schedule: Q01DX001 (ip), vehicle: saline with Tween-80 102 % of control | dose: 400.0 mg/kg/injection, schedule: Q01DX001 (ip), vehicle: saline with Tween-80 98 % of control

CCc1nc2ccccc2c(=O)n1C
inactive: dose: 12.5 mg/kg/injection, schedule: Q01DX009 (ip), vehicle: saline with Tween-80 100 % of control | dose: 25.0 mg/kg/injection, schedule: Q01DX009 (ip), vehicle: saline with Tween-80 100 % of control | dose: 50.0 mg/kg/injection, schedule: Q01DX009 (ip), vehicle: saline with Tween-80 95 % of control

CN(C)c1ccc(/C=C/c2c(F)cnc3ccccc23)cc1
inactive: dose: 12.5 mg/kg/injection, schedule: Q01DX009 (ip), vehicle: Klucel (hydroxypropylcellulose) (HPC) 114 % of control | dose: 25.0 mg/kg/injection, schedule: Q01DX009 (ip), vehicle: Klucel (hydroxypropylcellulose) (HPC) 101 % of control | [1] 104 % of control

CC(=O)CC(=O)c1ccc(C)cc1.CC(=O)CC(=O)c1ccc(C)cc1.[Ni]
inactive: dose: 3.12 mg/kg/injection, schedule: Q01DX005 (ip), vehicle: saline with Tween-80 97 % of control | dose: 6.25 mg/kg/injection, schedule: Q01DX005 (ip), vehicle: saline with Tween-80 95 % of control | dose: 12.5 mg/kg/injection, schedule: Q01DX005 (ip), vehicle: saline with Tween-80 90 % of control | dose: 25.0 mg/kg/injection, schedule: Q04DX002 (ip), vehicle: saline with Tween-80 95 % of control | dose: 25.0 mg/kg/injection, schedule: Q04DX003 (ip), vehicle: saline with Tween-80 97 % of control | dose: 50.0 mg/kg/injection, schedule: Q01DX005 (ip), vehicle: saline with Tween-80 91 % of control | dose: 50.0 mg/kg/injection, schedule: Q04DX002 (ip), vehicle: saline with Tween-80 99 % of control | dose: 50.0 mg/kg/injection, schedule: Q04DX003 (ip), vehicle: saline with Tween-80 101 % of control | dose: 100.0 mg/kg/injection, schedule: Q04DX002 (ip), vehicle: saline with Tween-80 105 % of control | dose: 200.0 mg/kg/injection, schedule: Q04DX002 (ip), vehicle: saline with Tween-80 98 % of control
